pKi: −log10 of the molar value.
Tests used:
Format in all cases: biochemical
ENPP1 [1] = target: T1, ENPP1 (Homo sapiens, UniProt P22413); assay: ENPP1 enzyme assay with AMP-pNP substrate (hydrolysis of ATP analog)
T1 sequence (P22413 1-925): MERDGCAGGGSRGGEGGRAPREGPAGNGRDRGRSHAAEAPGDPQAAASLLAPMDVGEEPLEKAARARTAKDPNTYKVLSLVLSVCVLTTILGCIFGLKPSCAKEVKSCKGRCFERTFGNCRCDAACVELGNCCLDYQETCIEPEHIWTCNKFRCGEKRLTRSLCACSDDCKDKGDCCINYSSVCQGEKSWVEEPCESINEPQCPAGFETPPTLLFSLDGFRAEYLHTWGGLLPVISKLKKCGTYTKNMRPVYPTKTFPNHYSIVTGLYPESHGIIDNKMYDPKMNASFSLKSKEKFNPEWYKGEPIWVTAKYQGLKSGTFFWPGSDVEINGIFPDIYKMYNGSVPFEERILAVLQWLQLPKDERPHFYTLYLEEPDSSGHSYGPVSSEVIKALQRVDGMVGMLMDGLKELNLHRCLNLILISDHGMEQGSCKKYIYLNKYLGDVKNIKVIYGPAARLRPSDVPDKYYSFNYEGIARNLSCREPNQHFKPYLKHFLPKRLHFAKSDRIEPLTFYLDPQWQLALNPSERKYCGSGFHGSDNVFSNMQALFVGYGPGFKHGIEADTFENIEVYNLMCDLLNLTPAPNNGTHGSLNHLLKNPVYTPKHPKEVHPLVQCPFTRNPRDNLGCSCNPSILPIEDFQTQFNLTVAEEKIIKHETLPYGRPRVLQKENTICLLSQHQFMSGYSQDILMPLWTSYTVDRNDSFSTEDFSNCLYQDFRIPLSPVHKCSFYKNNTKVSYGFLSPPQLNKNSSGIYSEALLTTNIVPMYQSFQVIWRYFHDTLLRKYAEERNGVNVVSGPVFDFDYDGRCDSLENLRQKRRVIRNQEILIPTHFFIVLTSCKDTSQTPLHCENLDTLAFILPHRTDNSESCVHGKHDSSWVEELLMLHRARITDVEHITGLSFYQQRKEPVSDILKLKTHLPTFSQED
Method in brief: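 Reactions ran 20 min at 37 °C, pH 8.5 Tris buffer with NaCl, CaCl2, ZnCl2, using 300 µM AMP-pNP and 60 ng/well recombinant human ENPP1; inhibitor range 10 µM–30 pM, duplicates.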

ENPP1 [2] = target: T1, ENPP1; assay: Indirect quantitation of 2',3'-cGAMP hydrolysis (AMP-Glo Assay kit)
ENPP1 [3] = target: T1, ENPP1; assay: Substrate selectivity ratio, inhibition of cGAMP hydrolysis versus ATP hydrolysis; settings: ratio Ki AMP-pNP / Ki cGAMP
Protocol: The selectivity ratios for inhibition of cGAMP hydrolysis versus ATP hydrolysis were then calculated as follows: […]

[4] = AMP-pNP substrate (ATP analog), Ki from IC50 by Cheng-Prusoff, read-out: ENPP1 Inhibition _AMP-pNP: Ki
[5] = cGAMP substrate, Ki from IC50 by Cheng-Prusoff, read-out: ENPP1 Inhibition -cGAMP: Ki

Row | pKi (ENPP1 [1]; [4]) | pKi (ENPP1 [2]; [5]) | Substrate Selectivity: Ki_AMP-pNP/Ki_cGAMP (ENPP1 [3]) | SMILES | pKi (ENPP1 [1]) | pKi (ENPP1 [2])
1 | < 6.00 | 6.00 to 7.00 | > 18.2 | COc1cc2ncn(-c3ccc(CCNS(N)(=O)=O)cc3)c2cc1OC [Example 217, N-(4-(5,6-dimethoxy-1H-benzo[d]imidazol-1-yl)phenethyl)sulfamide] |  | 
2 | > 7.00 | > 7.00 | 34 | COc1ccc2c(-c3ccc(CNS(N)(=O)=O)s3)ccnc2c1 [Example 389, N-((5-(7-methoxyquinolin-4-yl)thiophen-2-yl)methyl)sulfamide] |  | 
3 | > 7.00 | > 7.00 | 28.6 | COc1cc2nccc(-c3ccc(CN(O)C=O)cc3)c2cc1OC [Example 284, N-(4-(6,7-dimethoxyquinolin-4-yl)benzyl)-N-hydroxyformamide] |  | 
4 | < 6.00 | > 7.00 | >562 | COc1cc2nccc(Oc3ccc(NS(N)(=O)=O)cc3)c2cc1OC [Example 125, N-(4-((6,7-dimethoxyquinolin-4-yl)oxy)phenyl)sulfamide] |  | 
5 | < 6.00 | 6.00 to 7.00 | >158 | NS(=O)(=O)N1CCc2ccc(-c3ncnc4ccccc34)cc2C1 [Example 150, 7-(quinazolin-4-yl)-3,4-dihydroisoquinoline-2(1H)-sulfonamide] |  | 
6 | 6.00 to 7.00 | > 7.00 | 20.7 | COc1cc2ncnc(-c3ccc(CCNS(N)(=O)=O)cc3)c2cc1OC [Example 145, N-(4-(6,7-dimethoxyquinazolin-4-yl)phenethyl)sulfamide] |  | 
7 | 6.00 to 7.00 | > 7.00 | 41.6 | COc1cc2nccc(Oc3ccc(S(N)(=O)=O)cc3)c2cc1OC [Example 303, 4-((6,7-dimethoxyquinolin-4-yl)oxy)benzenesulfonamide] |  | 
8 | < 6.00 | > 7.00 | >371 | COc1ccc2ncc(C#N)c(-c3ccc4c(c3)CN(S(N)(=O)=O)CC4)c2c1 [Example 237, 7-(3-cyano-6-methoxyquinolin-4-yl)-3,4-dihydroisoquinoline-2(1H)-sulfonamide] |  | 
9 | 6.00 to 7.00 | > 7.00 | >40 | COc1ccc2c(N3CCc4cc(N(C)S(N)(=O)=O)ccc43)ccnc2c1 [Example 418, N-(1-(7-methoxyquinolin-4-yl)indolin-5-yl)-N-methylsulfamide] |  | 
10 | < 6.00 | > 7.00 | > 16.4 | COc1cc2ncnc(N3CCC(CCNS(=O)(=O)C(F)F)CC3)c2cc1OC [Example 208, N-(2-(1-(6,7-dimethoxyquinazolin-4-yl)piperidin-4-yl)ethyl)-1,1-difluoromethanesulfonamide] |  | 
11 | < 6.00 | 6.00 to 7.00 | > 14.4 | COc1cc2ncnc(N3CCC(CCNS(N)(=O)=O)CC3)c2cc1OC(C)C [Example 205, N-(2-(1-(6-isopropoxy-7-methoxyquinazolin-4-yl)piperidin-4-yl)ethyl)sulfamide] |  | 
12 | < 6.00 | 6.00 to 7.00 | >136 | COc1ccc2c(-c3ccc(CNS(N)(=O)=O)c(OC)c3)ccnc2c1 [Example 373, N-(2-methoxy-4-(7-methoxyquinolin-4-yl)benzyl)sulfamide] |  | 
13 | 6.00 to 7.00 | > 7.00 | 23.3 | COc1cc2ncnc(NCCc3ccc(NS(N)(=O)=O)cc3)c2cc1OC [Example 156, N-(4-(2-((6,7-dimethoxyquinazolin-4-yl)amino)ethyl)phenyl) sulfamide] |  | 
14 | 6.00 to 7.00 | > 7.00 | 26.4 | COc1cc2ncnc(N3CCC(CCN(O)C=O)CC3)c2cc1OC [Example 219, N-(2-(1-(6,7-dimethoxyquinazolin-4-yl)piperidin-4-yl)ethyl)-N-hydroxyformamide] |  | 
15 | > 7.00 | > 7.00 | 36.8 | COc1cc2nccc(Nc3ccc(CC(=O)NO)cc3)c2cc1OC [Example 207, 2-(4-((6,7-dimethoxyquinolin-4-yl)amino)phenyl)-N-hydroxyacetamide] |  | 
16 | 6.00 to 7.00 | > 7.00 | 34.2 | COc1cc2ncnc(-c3ccc(CNS(N)(=O)=O)c(F)c3)c2cc1OC [Example 301, N-(4-(6,7-dimethoxyquinazolin-4-yl)-2-fluorobenzyl)sulfamide] |  | 
17 | < 6.00 | > 7.00 | > 31.4 | COc1cc2ncnc(NC(C)c3ccc(NS(N)(=O)=O)cc3)c2cc1OC (stereo in doubt) [Example 254, (S)-N-(4-(1-((6,7-dimethoxyquinazolin-4-yl)amino)ethyl)phenyl)sulfamide] |  | 
18 | < 6.00 | > 7.00 | >81.3 | COc1ccc2ncc(C#N)c(-c3ccc(CNS(N)(=O)=O)cc3)c2c1 [Example 240, N-(4-(3-cyano-6-methoxyquinolin-4-yl)benzyl)sulfamide] |  | 
19 | < 6.00 | > 7.00 | > 626 | COc1ccc2c(-c3ccc(CN(C4CC4)S(N)(=O)=O)cc3)ccnc2c1 [Example 289, N-cyclopropyl-N-(4-(7-methoxyquinolin-4-yl)benzyl)sulfamide] |  | 
20 | 6.00 to 7.00 | > 7.00 | 43 | NS(=O)(=O)c1ccc(Oc2ccnc3[nH]c(=O)ccc23)cc1 [Example 352, 4-((7-oxo-7,8-dihydro-1,8-naphthyridin-4-yl)oxy)benzenesulfonamide] |  | 
21 | 6.00 to 7.00 | > 7.00 | >99.7 | COc1ccc2ncc(C#N)c(N3CCC4(CC3)CCN(S(N)(=O)=O)C4)c2c1 [Example 238, 8-(3-cyano-6-methoxyquinolin-4-yl)-2,8-diazaspiro[4.5]decane-2-sulfonamide] |  | 
22 | 6.00 to 7.00 | > 7.00 | 42 | COc1ccc2c(N3CCc4cc(NS(N)(=O)=O)ccc43)c(C)cnc2c1 [Example 378, N-(1-(7-methoxy-3-methylquinolin-4-yl)indolin-5-yl)sulfamide] |  | 
23 | < 6.00 | > 7.00 | >929 | Cn1c(=O)[nH]c2ncnc(N3CCC(CCNS(N)(=O)=O)CC3)c21 [Example 141, N-(2-(1-(7-methyl-8-oxo-8,9-dihydro-7H-purin-6-yl)piperidin-4-yl)ethyl)sulfamide] |  | 
24 | < 6.00 | > 7.00 | >45.9 | COc1ccc2ncnc(NC(C)c3ccc(NS(N)(=O)=O)cc3)c2c1 (stereo not drawn) [Example 299, N-(4-(1-((6-methoxyquinazolin-4-yl)amino)ethyl)phenyl)sulfamide] |  | 
25 | > 7.00 | > 7.00 | 13.3 | COc1ccc2c(Oc3ccc(NS(N)(=O)=O)cc3F)ccnc2c1 [Example 71, N-(3-fluoro-4-((7-methoxyquinolin-4-yl)oxy)phenyl)sulfamide] |  | 
26 | < 6.00 | > 7.00 | > 13.4 | COc1cc2ncnc(NCc3ccc(C(=O)NO)cc3)c2cc1OC [Example 196, 4-(((6,7-dimethoxyquinazolin-4-yl)amino)methyl)-N-hydroxybenzamide] |  | 
27 | < 6.00 | 6.00 to 7.00 | >61.9 | COc1cc2nccc(Oc3ccc4c(c3)CNS(=O)(=O)N4)c2cc1OC [Example 263, 6-((6,7-dimethoxyquinolin-4-yl)oxy)-3,4-dihydro-1H-benzo[c][1,2,6]thiadiazine 2,2-dioxide] |  | 
28 | < 6.00 | 6.00 to 7.00 | >77 | COc1ccc2c(N3CCc4cc(NS(N)(=O)=O)ccc43)ccnc2c1F [Example 376, N-(1-(8-fluoro-7-methoxyquinolin-4-yl)indolin-5-yl)sulfamide] |  | 

Row | SMILES | pKi (ENPP1 [1]; [4]) | pKi (ENPP1 [2]; [5]) | Substrate Selectivity: Ki_AMP-pNP/Ki_cGAMP (ENPP1 [3]) | pKi (ENPP1 [1]) | pKi (ENPP1 [2])
29 | COc1cc2ncnc(N3CCN(C(=O)CNS(N)(=O)=O)CC3)c2cc1OC [Example 52, N-(2-(4-(6,7-dimethoxyquinazolin-4-yl)piperazin-1-yl)-2-oxoethyl)sulfamide] |  |  | 58.1 | 6.00 to 7.00 | > 7.00
